Common to all, as to test: KinomeScan profiling
Common to all, as to format: binding

The target in one experiment is T1, PKAC-alpha (Homo sapiens, UniProt P17612).
T1 construct: purchased KinomeScan® (panel service)
The following applies: read-out: % control. In outline: (§1)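 1 μM cpd in DMSO; 468-kinase panel; readout RLU. % ctrl = (cpd − pos ctrl)/(neg ctrl − pos ctrl) ×100. Pos ctrl = 0%, DMSO = 100%. Hit cut-off <35%.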

The next experiment addresses DAPK3 (Homo sapiens, UniProt O43293). Particulars: DAPK3, 1 μM; read-out: % control. In outline:
as §1

The target in another experiment is ROCK1 (Homo sapiens, UniProt Q13464). Particulars: ROCK1, 1 μM; read-out: % control. The method in brief: as §1
Chain of ROCK1 (Q13464 whole entry): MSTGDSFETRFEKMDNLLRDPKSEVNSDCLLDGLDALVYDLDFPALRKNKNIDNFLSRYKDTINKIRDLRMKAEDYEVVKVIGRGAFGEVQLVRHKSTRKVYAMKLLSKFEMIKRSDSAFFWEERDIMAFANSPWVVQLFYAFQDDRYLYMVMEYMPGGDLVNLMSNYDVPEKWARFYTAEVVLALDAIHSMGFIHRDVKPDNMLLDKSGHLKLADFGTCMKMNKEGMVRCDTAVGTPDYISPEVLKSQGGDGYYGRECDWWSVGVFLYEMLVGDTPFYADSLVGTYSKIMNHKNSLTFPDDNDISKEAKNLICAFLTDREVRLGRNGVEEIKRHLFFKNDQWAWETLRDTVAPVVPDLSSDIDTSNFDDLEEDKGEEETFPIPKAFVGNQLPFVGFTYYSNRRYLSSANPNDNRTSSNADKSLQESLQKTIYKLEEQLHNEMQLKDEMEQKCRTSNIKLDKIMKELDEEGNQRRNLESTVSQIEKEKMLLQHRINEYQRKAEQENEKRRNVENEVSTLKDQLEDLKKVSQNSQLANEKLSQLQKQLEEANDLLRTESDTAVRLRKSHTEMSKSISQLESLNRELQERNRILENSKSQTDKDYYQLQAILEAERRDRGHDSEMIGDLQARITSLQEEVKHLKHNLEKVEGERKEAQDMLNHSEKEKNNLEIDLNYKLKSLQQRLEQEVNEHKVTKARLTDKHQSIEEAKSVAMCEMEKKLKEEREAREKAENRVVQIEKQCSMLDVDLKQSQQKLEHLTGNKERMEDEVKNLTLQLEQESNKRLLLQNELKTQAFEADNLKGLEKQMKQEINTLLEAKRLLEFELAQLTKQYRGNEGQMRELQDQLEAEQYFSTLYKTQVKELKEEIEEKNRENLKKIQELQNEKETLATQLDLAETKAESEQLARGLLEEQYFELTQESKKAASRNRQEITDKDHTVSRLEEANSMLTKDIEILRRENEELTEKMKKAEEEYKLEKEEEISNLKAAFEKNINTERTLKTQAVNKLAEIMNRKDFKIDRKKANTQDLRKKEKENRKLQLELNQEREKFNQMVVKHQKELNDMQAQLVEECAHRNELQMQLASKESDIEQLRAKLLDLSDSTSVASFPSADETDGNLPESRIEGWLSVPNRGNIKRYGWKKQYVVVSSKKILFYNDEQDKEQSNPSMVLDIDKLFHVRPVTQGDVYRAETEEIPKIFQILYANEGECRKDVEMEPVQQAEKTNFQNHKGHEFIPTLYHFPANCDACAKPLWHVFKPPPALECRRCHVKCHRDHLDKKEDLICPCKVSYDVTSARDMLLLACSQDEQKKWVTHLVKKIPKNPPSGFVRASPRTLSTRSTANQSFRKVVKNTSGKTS
The target of the next experiment is T2, MAPKAPK5 (Homo sapiens, UniProt Q8IW41).
T2 sequence (Q8IW41 1-473): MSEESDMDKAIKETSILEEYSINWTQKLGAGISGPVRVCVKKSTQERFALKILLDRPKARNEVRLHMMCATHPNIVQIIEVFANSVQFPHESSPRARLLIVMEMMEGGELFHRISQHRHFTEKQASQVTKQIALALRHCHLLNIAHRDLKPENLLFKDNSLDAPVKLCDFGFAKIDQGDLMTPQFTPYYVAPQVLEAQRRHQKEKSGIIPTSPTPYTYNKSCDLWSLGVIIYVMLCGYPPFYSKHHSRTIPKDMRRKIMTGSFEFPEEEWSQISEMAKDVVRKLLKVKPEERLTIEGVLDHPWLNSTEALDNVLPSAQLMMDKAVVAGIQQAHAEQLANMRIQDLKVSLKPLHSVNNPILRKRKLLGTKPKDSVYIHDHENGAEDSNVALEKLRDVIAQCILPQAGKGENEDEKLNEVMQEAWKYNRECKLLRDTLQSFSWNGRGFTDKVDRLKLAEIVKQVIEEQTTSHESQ
Particulars: MAPKAPK5, 1 μM; read-out: % control. The method in brief: as §1

The target in another experiment is T3, FLT3(R834Q) (Homo sapiens, UniProt P36888, R834Q).
T3 sequence (P36888 27-993 R834Q): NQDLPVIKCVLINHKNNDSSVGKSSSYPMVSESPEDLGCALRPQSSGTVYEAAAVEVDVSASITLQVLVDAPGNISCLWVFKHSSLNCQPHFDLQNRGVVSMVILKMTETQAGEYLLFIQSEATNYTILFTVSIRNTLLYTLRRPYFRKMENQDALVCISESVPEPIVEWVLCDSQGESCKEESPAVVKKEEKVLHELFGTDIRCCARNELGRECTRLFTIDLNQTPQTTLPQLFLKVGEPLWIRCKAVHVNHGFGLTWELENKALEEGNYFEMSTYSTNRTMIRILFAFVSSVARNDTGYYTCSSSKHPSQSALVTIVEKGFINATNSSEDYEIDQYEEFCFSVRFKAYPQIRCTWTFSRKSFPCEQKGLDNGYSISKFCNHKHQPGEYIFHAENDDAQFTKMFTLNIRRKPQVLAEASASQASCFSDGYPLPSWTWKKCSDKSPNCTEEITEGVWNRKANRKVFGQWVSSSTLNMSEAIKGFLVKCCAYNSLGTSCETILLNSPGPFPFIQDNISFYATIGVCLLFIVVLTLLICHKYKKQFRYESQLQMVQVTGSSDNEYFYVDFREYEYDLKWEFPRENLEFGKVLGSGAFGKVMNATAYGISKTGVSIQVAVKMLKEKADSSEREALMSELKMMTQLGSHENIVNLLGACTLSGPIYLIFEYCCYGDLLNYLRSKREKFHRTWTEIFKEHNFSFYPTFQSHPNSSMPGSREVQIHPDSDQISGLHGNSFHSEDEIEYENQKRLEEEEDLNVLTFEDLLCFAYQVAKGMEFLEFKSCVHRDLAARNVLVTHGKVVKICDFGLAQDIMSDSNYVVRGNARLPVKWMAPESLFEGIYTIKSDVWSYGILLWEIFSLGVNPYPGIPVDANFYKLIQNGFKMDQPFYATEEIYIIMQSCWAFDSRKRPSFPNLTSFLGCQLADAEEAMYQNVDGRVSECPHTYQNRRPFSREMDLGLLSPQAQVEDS
The following applies: read-out: % control. In outline: as §1

In the next experiment the target is T4, RIOK1 (Homo sapiens, UniProt Q9BRS2).
T4 sequence (Q9BRS2 1-568): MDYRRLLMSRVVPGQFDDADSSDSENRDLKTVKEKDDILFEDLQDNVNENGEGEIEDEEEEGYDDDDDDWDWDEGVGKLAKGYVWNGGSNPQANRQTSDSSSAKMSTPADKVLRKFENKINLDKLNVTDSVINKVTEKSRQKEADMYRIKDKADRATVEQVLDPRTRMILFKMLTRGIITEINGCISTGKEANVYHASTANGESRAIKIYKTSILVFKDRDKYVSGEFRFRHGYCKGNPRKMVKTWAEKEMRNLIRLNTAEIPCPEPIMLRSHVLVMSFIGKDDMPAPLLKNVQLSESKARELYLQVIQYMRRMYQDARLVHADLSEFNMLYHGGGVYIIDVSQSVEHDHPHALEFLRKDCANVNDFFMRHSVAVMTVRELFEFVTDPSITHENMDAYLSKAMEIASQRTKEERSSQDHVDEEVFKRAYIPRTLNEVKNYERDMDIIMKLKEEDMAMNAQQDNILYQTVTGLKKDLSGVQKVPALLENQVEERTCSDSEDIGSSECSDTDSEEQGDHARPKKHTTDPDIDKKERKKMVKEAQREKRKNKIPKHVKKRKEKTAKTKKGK
The following applies: RIOK1, 1 μM; read-out: % control. In outline: as §1

Chain of DAPK3 (O43293 whole entry): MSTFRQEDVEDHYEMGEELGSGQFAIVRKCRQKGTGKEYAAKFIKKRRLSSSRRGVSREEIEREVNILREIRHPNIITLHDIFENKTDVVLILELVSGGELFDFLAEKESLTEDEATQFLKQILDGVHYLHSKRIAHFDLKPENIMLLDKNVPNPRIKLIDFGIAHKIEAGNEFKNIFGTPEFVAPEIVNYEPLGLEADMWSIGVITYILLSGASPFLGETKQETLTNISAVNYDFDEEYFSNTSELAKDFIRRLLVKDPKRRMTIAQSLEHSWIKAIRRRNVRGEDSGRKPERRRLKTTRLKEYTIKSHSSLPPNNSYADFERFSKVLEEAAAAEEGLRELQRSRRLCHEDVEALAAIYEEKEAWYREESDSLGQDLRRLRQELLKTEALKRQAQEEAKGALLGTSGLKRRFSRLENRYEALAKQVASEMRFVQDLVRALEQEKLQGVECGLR

Turning to `CNc1c(-c2ccc(C(=O)N3CCC(N4CCOCC4)CC3)cc2)cnc2[nH]cc(Cl)c12` [Compound 96, (4-(3-chloro-4-(methylamino)-1H-pyrrolo[2,3-b]pyridin-5-yl)phenyl)(4-morpholinopiperidin-1-yl)methanone], the remaining binding at 1 µM on PKAC-alpha was determined as 100%; on DAPK3, 96%; at ROCK1, 4.7%; at MAPKAPK5, 100%; at FLT3(R834Q), 52%; on RIOK1 it was 0.15%.
As to `O=C(c1ccc(-c2cnc3[nH]cc(Cl)c3c2NC2CCCC2)cc1)N1CCC(N2CCOCC2)CC1` [Compound 101, (4-(3-chloro-4-(cyclopentylamino)-1H-pyrrolo[2,3-b]pyridin-5-yl)phenyl)(4-morpholinopiperidin-1-yl)methanone], the remaining binding at 1 µM on PKAC-alpha is 100%; on DAPK3 it was 88%; on ROCK1 it was 63%; at MAPKAPK5, 100%; at FLT3(R834Q) it was 75%; on RIOK1, 11%.
Turning to `CNc1c(-c2cnn([C@H]3CCN(C(C)=O)C[C@@H]3F)c2)cnc2[nH]cc(Cl)c12` [Compound 77, 1-((3S,4S)-4-(4-(3-chloro-4-(methylamino)-1H-pyrrolo[2,3-b]pyridin-5-yl)-1H-pyrazol-1-yl)-3-fluoropiperidin-1-yl)ethan-1-one], the remaining binding at 1 µM at PKAC-alpha was 100%; on DAPK3 it was 79%; at ROCK1, 20%; on MAPKAPK5, 100%; on FLT3(R834Q), 45%; at RIOK1, 0%.

The values above are taken from patent US12275731B2, “Azaindole inhibitors of wild-type and mutant forms of LRRK2” (DANA-FARBER CANCER INSTITUTE, INC., priority 2018, dated 2025).
